According to BindingDB's records for doi:10.7270/Q2KH0KWR (Burnham Center For Chemical Genomics, 2012):
pIC50: −log10 of the molar value.

Each molecule was assayed against T1, Tyrosine-protein phosphatase non-receptor type 5 (Homo sapiens, UniProt P54829) (assay: PTPN5 inhibition measured colorimetrically – biochemical, colorimetric absorbance, orthogonal assay for STEP inhibitor project, dose response (AID 624207)). Details: not given.
T1 sequence (P54829 whole entry): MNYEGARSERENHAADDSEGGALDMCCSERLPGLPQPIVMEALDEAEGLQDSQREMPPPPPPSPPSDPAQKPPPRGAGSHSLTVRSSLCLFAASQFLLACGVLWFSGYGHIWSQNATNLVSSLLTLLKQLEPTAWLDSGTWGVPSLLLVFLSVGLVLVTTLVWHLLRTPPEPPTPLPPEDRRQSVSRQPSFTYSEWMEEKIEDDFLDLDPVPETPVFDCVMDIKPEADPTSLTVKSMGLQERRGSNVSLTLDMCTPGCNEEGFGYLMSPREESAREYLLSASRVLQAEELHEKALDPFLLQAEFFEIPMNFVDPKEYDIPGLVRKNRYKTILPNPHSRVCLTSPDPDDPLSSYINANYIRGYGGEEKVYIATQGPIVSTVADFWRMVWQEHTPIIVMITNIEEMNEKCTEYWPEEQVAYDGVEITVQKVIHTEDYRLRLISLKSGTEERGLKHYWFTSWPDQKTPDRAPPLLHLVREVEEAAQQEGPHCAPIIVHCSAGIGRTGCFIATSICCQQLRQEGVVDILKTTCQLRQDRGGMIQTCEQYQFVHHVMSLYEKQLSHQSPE

| SMILES | pIC50 |
| --- | --- |
| COc1cc(NC(=S)N2CCN(C)CC2)c(OC)cc1Cl | < 4.10 |
| Cc1cc(C(=O)NN=Cc2ccc(-c3ccc([N+](=O)[O-])cc3Cl)o2)[nH]n1 [N-[[5-(2-chloro-4-nitrophenyl)furan-2-yl]methylideneamino]-5-methyl-1H-pyrazole-3-carboxamide] | < 4.10 |
| Cc1cc(C)c(NC(S)=NCC2CCN(C(C)c3ccccc3)C2)c(C)c1 (stereo unspecified) [1-[[1-(1-phenylethyl)-3-pyrrolidinyl]methyl]-3-(2,4,6-trimethylphenyl)thiourea] | 4.92 |
| O=C(N/N=C/c1ccc(Br)s1)c1cccc([N+](=O)[O-])c1 [N-[(E)-(5-bromanylthiophen-2-yl)methylideneamino]-3-nitro-benzamide] | 4.83 |
| CCOC(=O)CN1C(=O)S/C(=C/c2ccc(OCc3ccc(C(=O)O)cc3)cc2)C1=O [4-[[4-[(E)-[3-(2-ethoxy-2-oxoethyl)-2,4-dioxo-5-thiazolidinylidene]methyl]phenoxy]methyl]benzoic acid] | < 4.10 |
| CC(C)OCCCN=C(S)Nc1ccc(S(N)(=O)=O)cc1 [1-(3-propan-2-yloxypropyl)-3-(4-sulfamoylphenyl)thiourea] | < 4.10 |
| O=C(COc1ccc([CH+][N-]NC(=O)c2ccncc2)cc1)Nc1ccc([N+](=O)[O-])cc1 [N-[(E)-[4-[2-[(4-nitrophenyl)amino]-2-oxidanylidene-ethoxy]phenyl]methylideneamino]pyridine-4-carboxamide] | < 4.10 |
| COc1ccccc1NS(=O)(=O)c1cc(NC(=O)c2sccc2C)ccc1N1CCCC1 [N-[3-[(2-methoxyphenyl)sulfamoyl]-4-(1-pyrrolidinyl)phenyl]-3-methyl-2-thiophenecarboxamide] | 5.16 |
| O=C(O)c1ccc2c(c1)C(=O)N(c1cccc(-c3nc4ccccc4s3)c1)C2=O [2-[3-(1,3-benzothiazol-2-yl)phenyl]-1,3-bis(oxidanylidene)isoindole-5-carboxylic acid] | < 4.10 |
| COCCCN(C(S)=Nc1c(C)cc(C)cc1C)C(C)c1ccccn1 (stereo unspecified) [1-(3-methoxypropyl)-1-[1-(2-pyridinyl)ethyl]-3-(2,4,6-trimethylphenyl)thiourea] | < 4.10 |
| Cc1ccc(S(=O)(=O)Cc2ccc(C(=O)O)o2)cc1 [5-(tosylmethyl)-2-furoic acid] | < 4.10 |
| COc1cccc(N2[C@@H](CC(=O)O)c3ccc(/C=C/C(=O)O)cc3S2(=O)=O)c1 [(E)-3-[(3S)-3-(carboxymethyl)-2-(3-methoxyphenyl)-1,1-dioxo-3H-1,2-benzothiazol-6-yl]prop-2-enoic acid] | < 4.10 |
| O=C(N/N=C/c1ccoc1)c1cc(O)cc(O)c1 [N-[(E)-furan-3-ylmethylideneamino]-3,5-dihydroxybenzamide] | < 4.10 |
| Cc1ccc(S(=O)(=O)N2CCCCC2)cc1NC(=O)c1ccc(=O)[nH]c1 | < 4.10 |
| NC(=O)c1cc2ccccc2o/c1=N\NC(=O)c1ccccc1O [(2Z)-2-[[(2-hydroxyphenyl)-oxomethyl]hydrazinylidene]-1-benzopyran-3-carboxamide] | 4.86 |
| N#C/C(=C\c1ccc(OC(=O)c2ccc(Cl)s2)cc1)c1nc2ccccc2[nH]1 [5-chloro-2-thiophenecarboxylic acid [4-[(E)-2-(1H-benzimidazol-2-yl)-2-cyanoethenyl]phenyl] ester] | < 4.10 |
| NN=C1C(Cl)=C(Cl)C(Cl)=C1Cl | < 4.10 |
| COc1cc(C(=S)N2CCCCC2)ccc1O [(4Z)-2-methoxy-4-[piperidin-1-yl(sulfanyl)methylidene]cyclohexa-2,5-dien-1-one] | 4.81 |
| COc1cc(Cl)cc(C=NNC(=O)c2ccc3c(c2)OCO3)c1O [N'-[(E)-(3-chloro-5-methoxy-6-oxo-1-cyclohexa-2,4-dienylidene)methyl]-1,3-benzodioxole-5-carbohydrazide] | 4.63 |

Results, then the molecule that gave them:

| pIC50 | SMILES |
| --- | --- |
| < 4.10 | CC(=O)N1CCOc2ccc(S(=O)(=O)NCc3ccc(F)cc3)cc21 [MLS001117284] |
| 4.80 | O=C(N/N=C/c1ccc(Cl)c([N+](=O)[O-])c1)c1ccc2c(c1)OCCO2 [MLS000587937] |
| < 4.10 | CC(=NNC(=S)N1CC2CCC(CC2)C1)c1cccc(C)n1 [SMR001565418] |
| < 4.10 | Cc1ccc(NC(=O)CN2C(=O)S/C(=C\c3ccc(OCC(=O)O)c(Br)c3)C2=O)cc1 [SMR000477386] |
| 4.70 | O=C(COc1ccc(/C=N/NC(=O)c2ccc(O)cc2)cc1)Nc1cccc([N+](=O)[O-])c1 [MLS000714465] |
| < 4.10 | O=Cc1cn(-c2ccccc2)nc1-c1cc2cc(O)ccc2oc1=O [SMR000152596] |
| 4.80 | O=C(N/N=C/C1C=CC=CC1=O)c1cccc([N+](=O)[O-])c1 (stereo unspecified) [MLS002667988] |
| < 4.10 | O=C(Nc1cccc2c(=O)[nH][nH]c(=O)c12)c1ccc([N+](=O)[O-])cc1 [MLS003171605] |
| 5.15 | O=C(Nc1cc([N+](=O)[O-])ccc1O)c1cccc(C(=O)Nc2cc([N+](=O)[O-])ccc2O)c1 [MLS001008494] |
| < 4.10 | NS(=O)(=O)c1ccc(N/C(S)=N\CCc2ccccc2)cc1 [MLS000621468] |
| < 4.10 | COc1ccc(-c2ccc(NC(=O)c3ccc(Br)o3)cc2)nn1 [MLS001236653] |
| 4.88 | COC(=O)Nc1sc2c(c1C(N)=O)CCC(C)C2 (stereo unspecified) [MLS000683996] |
| 4.47 | CCN1CCN(C(=S)c2ccc(O)cc2)CC1 [MLS000621546] |

Same assay, conditions: inactive by the depositor's call

| SMILES | pIC50 |
| --- | --- |
| O=C(CCc1ccccc1)NNC(=O)c1ccc(NC(=O)c2ccccc2)cc1 | 4.42 |
| COc1cc(Cl)ccc1N=C(S)N(CCCN1CCOCC1)Cc1cn(C)c2ccccc12 [N'-(4-chloro-2-methoxyphenyl)-N-[(1-methyl-1H-indol-3-yl)methyl]-N-(3-morpholin-4-ylpropyl)thiourea] | 4.46 |
| Cc1ccc(N=C(S)N(CCN(C)C)Cc2cccs2)c(C)c1 | 4.25 |
| Cc1c(CC(=O)O)c(=O)oc2c(C)c(OCc3ccccc3Br)ccc12 [2-[7-[(2-bromophenyl)methoxy]-4,8-dimethyl-2-oxochromen-3-yl]acetic acid] | 4.58 |
| CN1CCN(C(S)=Nc2ccc(S(N)(=O)=O)cc2)CC1 [N-[4-(aminosulfonyl)phenyl]-4-methyl-1-piperazinecarbothioamide] | 4.38 |
| S=C(NCCc1ccccc1)Nc1c(Cl)cccc1Cl [1-(2,6-dichlorophenyl)-3-(2-phenylethyl)thiourea] | 4.39 |
| O=C(COc1ccc(/C=N/NC(=O)c2ccccc2O)cc1)Nc1ccccc1 [N-[(E)-[4-(2-anilino-2-oxoethoxy)phenyl]methylideneamino]-2-hydroxybenzamide] | 4.63 |
| CCOC(=O)c1c(NC(=O)OC)sc(C(=O)N(CC)CC)c1C [ethyl 5-(diethylcarbamoyl)-2-(methoxycarbonylamino)-4-methylthiophene-3-carboxylate] | 4.35 |
| CN1CCN(C(=S)c2ccc(Br)cc2)CC1 [1-[(4-bromophenyl)carbonothioyl]-4-methylpiperazine] | 4.38 |
| O=C(N/N=C/c1cccc(Br)c1)c1ccc(N2CCCC2=O)cc1 [N-[(E)-(3-bromophenyl)methylideneamino]-4-(2-oxidanylidenepyrrolidin-1-yl)benzamide] | 4.64 |
| O=C(N/N=C/c1cccc([N+](=O)[O-])c1)c1ccc(Br)cc1 [4-bromo-N-[(E)-(3-nitrophenyl)methylideneamino]benzamide] | 4.67 |
| CCCN(CC(=O)Nc1ccccc1OC)C(=O)Cc1ccc2c(c1)CCC2 [2-(2,3-dihydro-1H-inden-5-yl)-N-[2-[(2-methoxyphenyl)amino]-2-oxidanylidene-ethyl]-N-propyl-ethanamide] | 4.24 |
| O=C(N/N=C/c1ccc(Br)cc1)c1ccc(Br)o1 [5-bromanyl-N-[(E)-(4-bromophenyl)methylideneamino]furan-2-carboxamide] | 4.62 |
| CCCc1cc(=O)oc2cc(OCC(=O)Nc3ccc(S(N)(=O)=O)cc3)ccc12 [2-(2-oxo-4-propylchromen-7-yl)oxy-N-(4-sulfamoylphenyl)acetamide] | 4.51 |
| NC(=O)C1(N2CCCCC2)CCN(C(=S)Nc2ccc(S(N)(=O)=O)cc2)CC1 [1'-({[4-(aminosulfonyl)phenyl]amino}carbonothioyl)-1,4'-bipiperidine-4'-carboxamide] | 4.59 |
| Cc1nn(C)cc1C=NNC(=S)Nc1ccccc1 [1-[(E)-(1,3-dimethylpyrazol-4-yl)methylideneamino]-3-phenyl-thiourea] | 4.24 |

Continued, values first:

| pIC50 | SMILES |
| --- | --- |
| 4.44 | Cc1c(C)c2ccc(OCC(=O)Nc3ccc(S(N)(=O)=O)cc3)c(C)c2oc1=O [SMR000652408] |
| 4.60 | CC(C)(C)C(=O)Nc1ccc(C(=O)Nc2cccc(Oc3ccc(C(=O)O)c(C(=O)O)c3)c2)cc1 [MLS001181252] |
| 4.42 | Cc1sc2nc(CSC(C)C(=O)Nc3ccc(Cl)cn3)nc(O)c2c1C (stereo unspecified) [SMR001268769] |
| 4.55 | CCOc1ccc(/C=N/NC(=O)c2cc3c(OC)cccc3[nH]2)cc1 [MLS001216500] |
| 4.35 | COc1cc(/C=N/NC(=O)c2ccccc2O)ccc1OCC(=O)Nc1ccccc1 [SMR000515267] |
| 4.48 | O=C(O)CCC(/N=N/c1ccc(S(=O)(=O)N2CCCC2)cc1[N+](=O)[O-])c1cccs1 (stereo unspecified) [SMR000151450] |
| 4.65 | Cc1ccc(NC(=O)c2ccc3nc(N4CCOCC4)sc3c2)c(Cl)c1 [SMR000624920] |
| 4.57 | CCOC(=O)N1CCC(N(CCN(C)C)C(=S)Nc2ccc(Oc3ccccc3)cc2)CC1 [SMR000311544] |
